From patent publication US6558650B1, “Enhancement of cellular gallium uptake” (Oregon Health and Science University, priority 1998, dated 2003)

Key:
[1] = test system: TfR− and TfR+ cells (Chinese Hamster Ovary); experiment: Cellular uptake of Ga-67, text statements that do not separate TfR− and TfR+ cells; assay type: cell-based
Source text: (§1) A pair of transfected Chinese Hamster Ovary cells lines were used to compare, in a controlled manner, the Tf-dependent and Tf-independent systems for the uptake of Ga-67.
(§2) The two cell lines are identical except that TfR-cells express no TfR, and TfR+ cells over-express the transfected human TfR constitutively. This means that expression of the TfR is independent of cell growth or iron content, which could alter the cells matabolically in many ways that may confound a well-controlled experimental determination of cause and effect. TfR− and TfR+ cells were grown in monolayer and maintained as previously described (37).
The tube was placed on its side on the surface of a cool, daylight color-balanced, fluorescent light box (Just Normlicht).
The temperature at the surface of the light box was 29° C. for the fluorescent light box, and 37° C. for the UV light box. The PDN was added to 10 ml of incubation solution (below) to achieve concentrations ranging from 0.25 μM to 100 μM. Each 10 ml sample of incubation solution contained an equal quantity of ethanol (approximately 100 µl per 10 ml), including the controls.
Following growth of cells in 25 cm^2 flasks to subconfluence, monolayers of cultured cells were first washed, and then pre-incubated for 2 hours at 37° C. with 5 ml serum-free Dulbecco's Modified Essential Medium (DMEM) to deplete the cells of Tf. The pre-incubation medium was then removed and replaced by 1.5 ml of the incubation solution containing 10 uCi/ml carrier-free Ga-67 citrate (Mallinckrodt) in Hank's Balanced Salt solution (HBSS), pre-warmed to 37° C. The concentration of Ga-67 in the incubation solution was approximately 0.25 nM. The HBSS, pH 7.2-7.4, contained 3.7 g/L NaHCO3, 1 mM CaCl2, and 1 mM magnesium salts. Cells were incubated in the PDN- and Ga-67-containing solutions in a CO2 incubator at 37° C. for intervals ranging from 10 seconds to 90 minutes. All experiments were conducted in the dark.
Following incubation of cells with Ga-67, the flasks were immediately placed on ice. The radioactive material was removed by aspiration with a Pasteur pipette attached to water suction. The monolayers were washed 3 times with 5 ml each ice cold HBSS. Cells were washed once with phosphate-buffered saline (PBS), pre-warmed to 37° C. The PBS was removed and the cellular monolayer overlaid with 1.5 ml 0.25% trypsin containing 1 mM EDTA. The trypsin was immediately removed and the cells were incubated briefly (1 minute) at 37° C. The cells in each flask were then dislodged by several gentle mechanical blows to the side of the flask and collected in 200 μl ice cold PBS.
By a modification of a method previously published for radiolabeling of protozoan parasites (38), the cells were then separated from unbound contaminating radioactivity. The 200 μl of cells in PBS were layered gently over 200 μl of an 8.5:1.5 ratio of dibutylpthalate:liquid paraffin oil in a 1.5 ml microfuge tube. With care not to agitate the mixture, the tubes were than centrifuged at 12,000 rpm for 2 minutes in a microfuge. The supernatant and the oil was then aspirated carefully from the top of the tube with a Pasteur pipette attached to water suction. The bottom of the microfuge tube, containing the cell pellet (typical pellet volume˜100 μl), was then clipped with a microfuge tube clipper into a counting vial containing 900 μl of a solution of 200 mM NaOH. 1% SDS. The cell pellet was dissolved in this solution. The content of radioactivity in the samples was determined by a gamma well counting (Packard) in comparison to standard dilutions of the original Ga-67 incubation solution.
Protein assays were performed on the solubilized cell samples by formation of a cuprous bicinchonicic acid complex using a spectrophotometric microtiter plate reader (Dynatech) (39). The method and reagents used are supplied in a kit (Pierce) and were performed according to the manufacturer's directions.

[2] = test system: TfR− cells (transfected Chinese Hamster Ovary cells expressing no TfR); conditions: 0.5 h, 25 µM
Source text: as §1, §2
(§3) The tube was placed on its side on the surface of a cool, daylight color-balanced, fluorescent light box (Just Normlicht). […]
(§4) The temperature at the surface of the light box was 29° C. for the fluorescent light box, and 37° C. for the UV light box. […] Each 10 ml sample of incubation solution contained an equal quantity of ethanol (approximately 100 µl per 10 ml), including the controls. […]
(§5) By a modification of a method previously published for radiolabeling of protozoan parasites (38), the cells were then separated from unbound contaminating radioactivity. […] The content of radioactivity in the samples was determined by a gamma well counting (Packard) in comparison to standard dilutions of the original Ga-67 incubation solution. […]

[3] = test system: TfR+ cells (transfected Chinese Hamster Ovary cells over-expressing human TfR); conditions: 0.5 h, 25 µM
Source text: as §1, §2, §3, §4, §5

[4] = oral; cited from earlier work
[5] = test system: nucleated rabbit erythrocytes; conditions: isolated nitroso-derivative compared with crude photo-degraded nifedipine (44); cited from earlier work

COC(=O)C1=C(C)NC(C)=C([N+](=O)[O-])C1c1ccccc1C(F)(F)F (centres unmarked) [BAY K 8644]
effect on Ga-67 uptake ([1]; light-protected compound): None of the light-protected or photo-irradiated compounds had an effect
effect on Ga-67 uptake ([1]; photo-irradiated compound): None of the light-protected or photo-irradiated compounds had an effect

COC(=O)C1=C(C)NC(C)=C(C(=O)OC)C1c1ccccc1[N+](=O)[O-] [Nifedipine, dimethyl 1,4-dihydro-2,6-dimethyl-4-(2-nitrophenyl)-3,5-pyridinedicarboxylate]
fmoles Ga-67/mg Total Cellular Protein, TfR− cells [2]: .171 fmoles Ga-67/mg Total Cellular
fmoles Ga-67/mg Total Cellular Protein, TfR+ cells [3]: 0.296 fmoles Ga-67/mg Total Cellular
time to peak plasma levels post ingestion [4]: approximately 30 minutes

COc1ccc([C@@H]2Sc3ccccc3N(CCN(C)C)C(=O)[C@@H]2OC(C)=O)cc1 [diltiazem]
effect on Ga-67 uptake ([1]; light-protected compound): None of the light-protected or photo-irradiated compounds had an effect
effect on Ga-67 uptake ([1]; photo-irradiated compound): None of the light-protected or photo-irradiated compounds had an effect

CC(=O)c1c(C)nc(C)c(C(C)=O)c1-c1ccccc1N=O [nitroso-derivative, 2,6-dimethyl-3,5-diacetyl-4-(2′-nitrosophenyl)-pyridine]
pharmacological action in enhancing the uptake of Fe^2+ [5]: same pharmacological action as “crude” photo-degraded nifedipine
gallium uptake (inferred from conditions that correlate with presence of the nitroso-derivative) ([1]; not tested in isolation, inferred from Example 3 data): enhances gallium uptake

COc1ccc(CCN(C)CCCC(C#N)(c2ccc(OC)c(OC)c2)C(C)C)cc1OC (centres unmarked) [verapamil]
effect on Ga-67 uptake ([1]; light-protected compound): None of the light-protected or photo-irradiated compounds had an effect
effect on Ga-67 uptake ([1]; photo-irradiated compound): None of the light-protected or photo-irradiated compounds had an effect
